pIC50: −log10 of the molar value.
What was measured:
[1] = system: RT112/84 cell line (FGFR3-fusion); assay: Cancer cell line cell viability assay (Cell Titer-Glo), 72 hr; format: cell-based; conditions: Homo sapiens, RT112/84, RT112/84 cell line (FGFR3-fusion)
Outline: (§1)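 Intracellular ATP was measured by Cell Titer-Glo 2.0 luminescence after cells were incubated with compound dilutions (top 3 μM, 4-fold, 9 doses). Values were expressed relative to DMSO-treated cells and IC50 was calculated from a variable-slope dose-response curve.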

[2] = system: KATO-III cell line (FGFR2 amplification); assay: as above; format: cell-based; conditions: Homo sapiens, KATO III
Outline: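 Luminescent ATP read-out (Cell Titer-Glo 2.0) after compound exposure, normalised to DMSO-only wells. Dosing: 9 concentrations, 4-fold steps, top 3 μM, triplicates. IC50 derived by log(inhibitor) vs. response 4-parameter fit.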

[3] = system: KG-1 cell line (FGFR 1-fusion); assay: as above; format: cell-based; conditions: Homo sapiens, KG-1, KG-1 cell line (FGFR1-fusion)
Outline: as §1

FGFR3 (V555M) = biological target: T1, FGFR3 (V555M) (Homo sapiens, UniProt P22607, V555M); assay: Kinase binding assay (kinase-tagged T7 phage, affinity beads, qPCR), Kd; conditions: V555M mutant; read-out: FGFR3 (V555M) (Kd nM)
T1 construct: made in house; host or cells: E. coli (BL21-derived), T7 phage
T1 sequence (P22607 23-806 V555M): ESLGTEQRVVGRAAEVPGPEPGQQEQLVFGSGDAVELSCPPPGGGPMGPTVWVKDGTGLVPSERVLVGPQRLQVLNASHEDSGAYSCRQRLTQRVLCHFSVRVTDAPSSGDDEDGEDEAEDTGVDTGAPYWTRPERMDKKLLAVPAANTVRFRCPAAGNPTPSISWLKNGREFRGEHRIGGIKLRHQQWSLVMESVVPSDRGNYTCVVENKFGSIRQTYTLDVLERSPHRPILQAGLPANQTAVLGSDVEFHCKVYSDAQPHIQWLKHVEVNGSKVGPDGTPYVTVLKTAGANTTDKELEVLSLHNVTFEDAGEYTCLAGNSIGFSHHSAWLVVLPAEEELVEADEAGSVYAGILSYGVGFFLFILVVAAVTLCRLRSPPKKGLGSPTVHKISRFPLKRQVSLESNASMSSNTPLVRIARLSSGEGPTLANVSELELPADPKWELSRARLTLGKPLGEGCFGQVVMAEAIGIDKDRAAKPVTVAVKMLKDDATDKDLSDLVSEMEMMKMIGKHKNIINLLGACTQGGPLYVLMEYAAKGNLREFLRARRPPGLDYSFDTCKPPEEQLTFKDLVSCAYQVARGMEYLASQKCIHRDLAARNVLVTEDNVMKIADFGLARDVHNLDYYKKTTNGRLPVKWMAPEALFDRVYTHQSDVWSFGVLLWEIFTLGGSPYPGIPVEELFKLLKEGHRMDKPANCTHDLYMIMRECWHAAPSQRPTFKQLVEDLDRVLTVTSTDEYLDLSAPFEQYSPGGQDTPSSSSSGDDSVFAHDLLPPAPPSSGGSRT
Outline: (§2)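 Competition binding of compounds against kinase-tagged T7 phage captured on immobilised biotinylated ligand beads; bead-bound kinase quantified by qPCR of eluates. 11-point 3-fold dilution, 0.9% DMSO final; Kd from Hill fit with slope fixed at −1.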

FGFR4 = biological target: T2, FGFR4 (Homo sapiens, UniProt P22455); assay: as above; conditions: read-out: FGFR4 (Kd nM)
T2 construct: made in house; host or cells: E. coli (BL21-derived), T7 phage
T2 sequence (P22455 22-802): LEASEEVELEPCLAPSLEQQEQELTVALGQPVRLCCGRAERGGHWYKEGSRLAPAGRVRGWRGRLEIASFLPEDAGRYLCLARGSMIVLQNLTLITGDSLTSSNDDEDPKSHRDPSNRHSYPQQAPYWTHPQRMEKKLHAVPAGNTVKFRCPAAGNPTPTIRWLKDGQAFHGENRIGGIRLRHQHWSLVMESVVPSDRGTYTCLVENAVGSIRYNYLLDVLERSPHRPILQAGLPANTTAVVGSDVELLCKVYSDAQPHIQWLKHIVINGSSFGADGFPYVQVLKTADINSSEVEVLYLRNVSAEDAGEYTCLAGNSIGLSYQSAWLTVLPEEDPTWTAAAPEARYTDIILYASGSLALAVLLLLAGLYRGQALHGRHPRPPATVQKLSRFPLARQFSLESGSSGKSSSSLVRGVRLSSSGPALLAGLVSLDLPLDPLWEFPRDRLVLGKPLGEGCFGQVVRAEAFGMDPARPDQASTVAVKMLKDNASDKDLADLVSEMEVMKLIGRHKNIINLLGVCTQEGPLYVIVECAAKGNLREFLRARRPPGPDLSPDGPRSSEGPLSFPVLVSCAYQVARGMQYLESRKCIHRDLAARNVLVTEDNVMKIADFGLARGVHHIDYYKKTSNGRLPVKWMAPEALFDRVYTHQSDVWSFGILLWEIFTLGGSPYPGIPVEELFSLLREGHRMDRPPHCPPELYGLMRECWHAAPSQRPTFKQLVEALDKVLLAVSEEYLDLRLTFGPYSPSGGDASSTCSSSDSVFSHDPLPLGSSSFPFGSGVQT
Outline: as §2

FGFR1 = biological target: T3, FGFR1 (Homo sapiens, UniProt P11362); assay: as above; conditions: read-out: FGFR1 (Kd nM)
T3 construct: made in house; host or cells: E. coli (BL21-derived), T7 phage
T3 sequence (P11362 22-822): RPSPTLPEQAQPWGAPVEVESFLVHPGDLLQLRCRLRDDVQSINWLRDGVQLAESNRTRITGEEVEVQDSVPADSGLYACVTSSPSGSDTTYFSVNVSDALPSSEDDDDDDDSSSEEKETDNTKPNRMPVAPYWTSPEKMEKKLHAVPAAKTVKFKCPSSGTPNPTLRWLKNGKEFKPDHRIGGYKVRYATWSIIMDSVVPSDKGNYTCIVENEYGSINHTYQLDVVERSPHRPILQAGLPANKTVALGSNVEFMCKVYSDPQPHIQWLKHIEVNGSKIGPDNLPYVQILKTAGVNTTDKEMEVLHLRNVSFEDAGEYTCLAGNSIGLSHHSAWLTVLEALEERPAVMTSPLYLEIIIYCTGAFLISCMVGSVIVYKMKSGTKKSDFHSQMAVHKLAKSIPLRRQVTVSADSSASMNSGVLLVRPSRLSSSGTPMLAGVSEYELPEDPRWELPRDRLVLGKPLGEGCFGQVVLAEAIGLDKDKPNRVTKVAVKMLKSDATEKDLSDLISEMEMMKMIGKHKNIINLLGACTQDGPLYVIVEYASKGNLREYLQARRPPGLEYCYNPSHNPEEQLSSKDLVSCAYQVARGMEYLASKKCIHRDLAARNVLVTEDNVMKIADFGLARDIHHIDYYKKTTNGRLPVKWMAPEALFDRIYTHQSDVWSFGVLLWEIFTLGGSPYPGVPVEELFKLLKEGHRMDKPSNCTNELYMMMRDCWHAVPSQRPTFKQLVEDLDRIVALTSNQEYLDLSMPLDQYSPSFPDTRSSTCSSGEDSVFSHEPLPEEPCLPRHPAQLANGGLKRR
Outline: as §2

FGFR2 = biological target: T4, FGFR2 (Homo sapiens, UniProt P21802); assay: as above; conditions: read-out: FGFR2 (Kd nM)
T4 construct: made in house; host or cells: E. coli (BL21-derived), T7 phage
T4 sequence (P21802 22-821): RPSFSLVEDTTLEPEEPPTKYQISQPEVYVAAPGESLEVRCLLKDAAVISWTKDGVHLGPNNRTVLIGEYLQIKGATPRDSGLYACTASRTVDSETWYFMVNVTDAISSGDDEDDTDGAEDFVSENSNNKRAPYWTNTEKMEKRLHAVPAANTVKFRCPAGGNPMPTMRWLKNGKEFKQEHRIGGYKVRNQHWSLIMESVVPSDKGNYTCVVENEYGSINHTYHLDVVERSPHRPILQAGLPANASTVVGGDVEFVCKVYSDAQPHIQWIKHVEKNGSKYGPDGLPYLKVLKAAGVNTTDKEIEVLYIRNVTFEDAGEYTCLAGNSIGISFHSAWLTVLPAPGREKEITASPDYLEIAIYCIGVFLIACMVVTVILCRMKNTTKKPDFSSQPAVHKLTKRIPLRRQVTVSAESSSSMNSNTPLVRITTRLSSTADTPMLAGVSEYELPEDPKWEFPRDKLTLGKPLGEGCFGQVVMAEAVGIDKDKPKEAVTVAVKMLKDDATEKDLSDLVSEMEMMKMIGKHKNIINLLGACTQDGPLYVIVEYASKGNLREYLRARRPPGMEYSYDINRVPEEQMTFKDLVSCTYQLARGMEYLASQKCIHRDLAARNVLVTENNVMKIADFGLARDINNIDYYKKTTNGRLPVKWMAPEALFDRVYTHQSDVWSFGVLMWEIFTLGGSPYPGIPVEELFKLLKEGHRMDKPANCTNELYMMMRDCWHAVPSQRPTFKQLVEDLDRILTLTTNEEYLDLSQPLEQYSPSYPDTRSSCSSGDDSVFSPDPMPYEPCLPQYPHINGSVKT
Outline: as §2

FGFR3 = biological target: T5, FGFR3 (Homo sapiens, UniProt P22607); assay: as above; conditions: read-out: FGFR3 (Kd nM)
T5 construct: made in house; host or cells: E. coli (BL21-derived), T7 phage
T5 sequence (P22607 23-806): as the sequence (P22607 23-806 V555M) above, with M533V counted along it
Outline: as §2

Row | SMILES | pIC50 [1] | pIC50 [2] | pIC50 [3] | Kd (FGFR3 (V555M)) [nM] | Kd (FGFR4) [nM] | Kd (FGFR1) [nM] | Kd (FGFR2) [nM] | Kd (FGFR3) [nM]
1 | C[C@@H](Oc1ccc2[nH]nc(-c3ccc(N4CC(C)(OCC(C)(C)O)C4)nc3)c2c1)c1c(Cl)cncc1Cl [Example 93, (R)-1-((1-(5-(5-(1-(3,5-dichloropyridin-4-yl)ethoxy)-1H-indazol-3-yl)pyridin-2-yl)-3-methylazetidin-3-yl)oxy)-2-methylpropan-2-ol] | 7.30 to 10.00 | 7.30 to 10.00 | 6.70 to 7.30 | 1 to 50 | 1 to 50 | 1 to 50 | 1 to 50 | 1 to 50
2 | C[C@@H](Oc1ccc2[nH]nc(-c3ccc(N4CC(C)(NC(=O)CN(C)C)C4)nc3)c2c1)c1c(Cl)cncc1Cl [Example 95, (R)-N-(1-(5-(5-(1-(3,5-dichloropyridin-4-yl)ethoxy)-1H-indazol-3-yl)pyridin-2-yl)-3-methylazetidin-3-yl)-2-(dimethylamino)acetamide] | 7.30 to 10.00 | 7.30 to 10.00 | 7.30 to 10.00 | 1 to 50 | 1 to 50 | 1 to 50 | 1 to 50 | 1 to 50
3 | C[C@@H](Oc1ccc2[nH]nc(-c3cnc(N4CC(C)(N5CC(C)(O)C5)C4)c(F)c3)c2c1)c1c(Cl)cncc1Cl [Example 96, (R)-1′-(5-(5-(1-(3,5-dichloropyridin-4-yl)ethoxy)-1H-indazol-3-yl)-3-fluoropyridin-2-yl)-3,3′-dimethyl-[1,3′-biazetidin]-3-ol] | 7.30 to 10.00 | 7.30 to 10.00 | 7.30 to 10.00 | 1 to 50 | 1 to 50 | 1 to 50 | 1 to 50 | 1 to 50
4 | COC1(C)CN(C2(C)CN(c3ncc(-c4n[nH]c5ccc(O[C@H](C)c6c(Cl)cncc6Cl)cc45)cc3F)C2)C1 [Example 97, (R)-5-(1-(3,5-dichloropyridin-4-yl)ethoxy)-3-(5-fluoro-6-(3-methoxy-3,3′-dimethyl-[1,3′-biazetidin]-1′-yl)pyridin-3-yl)-1H-indazole] | 7.30 to 10.00 | 7.30 to 10.00 | 6.70 to 7.30 | 1 to 50 | 1 to 50 | 1 to 50 | 1 to 50 | 1 to 50
5 | C[C@@H](Oc1ccc2[nH]nc(-c3cnc(N4CC(C)(CN5CCOCC5)C4)c(F)c3)c2c1)c1c(Cl)cncc1Cl [Example 109, (R)-4-((1-(5-(5-(1-(3,5-dichloropyridin-4-yl)ethoxy)-1H-indazol-3-yl)-3-fluoropyridin-2-yl)-3-methylazetidin-3-yl)methyl)morpholine] | 7.30 to 10.00 | 6.70 to 7.30 | 6.70 to 7.30 | 1 to 50 | 1 to 50 | 1 to 50 | 1 to 50 | 1 to 50

Next, values leading:

Row | pIC50 [1] | pIC50 [2] | pIC50 [3] | Kd (FGFR3 (V555M)) [nM] | Kd (FGFR4) [nM] | Kd (FGFR1) [nM] | Kd (FGFR2) [nM] | Kd (FGFR3) [nM] | SMILES
6 | 7.30 to 10.00 | 7.30 to 10.00 | 7.30 to 10.00 | 1 to 50 | 1 to 50 | 1 to 50 | 1 to 50 | 1 to 50 | C[C@@H](Oc1ccc2[nH]nc(-c3cnc(N4CC(C)(N5CCC5)C4)c(F)c3)c2c1)c1c(Cl)cncc1Cl [Example 103, (R)-5-(1-(3,5-dichloropyridin-4-yl)ethoxy)-3-(5-fluoro-6-(3′-methyl-[1,3′-biazetidin]-1′-yl)pyridin-3-yl)-1H-indazole]
7 | 7.30 to 10.00 | 7.30 to 10.00 | 7.30 to 10.00 | 1 to 50 | 1 to 50 | 1 to 50 | 1 to 50 | 1 to 50 | CC(C)NCC1(C)CN(c2ncc(-c3n[nH]c4ccc(O[C@H](C)c5c(Cl)cncc5Cl)cc34)cc2F)C1 [Example 108, (R)-N-((1-(5-(5-(1-(3,5-dichloropyridin-4-yl)ethoxy)-1H-indazol-3-yl)-3-fluoropyridin-2-yl)-3-methylazetidin-3-yl)methyl)propan-2-amine]

Reference: patent publication US20250368666A1, “INDAZOLE COMPOUNDS” (TYRA BIOSCIENCES, INC., priority 2022, published 2025)
